The values below come from PMC3813006 (Bioorganic & medicinal chemistry, 2009).

Data set [1] deals with Trypanosoma brucei rhodesiense STIB900. The data set can be described thus: In vitro antitrypanosomal assay, T. b. r. STIB900. Particulars: RHODESIENSE|STIB900, read-out: T. b. r. IC50. Format: cell-based.
In a further data set the test system is Plasmodium falciparum K1. Description: microbe, parasite or virus in culture. To be noted: K1, read-out: P. f. IC50.
A short description of data set [2]: Cytotoxicity in cultured L6 rat myoblast cells. Format: cell-based. Particulars: rat, L6 rat myoblast cells.
The next data set relates to L6 rat myoblast cells. The data set can be described thus: Cytotoxicity in cultured L6 rat myoblast cells. Format: cell-based. Particulars: read-out: Cytotoxicity IC50; cultured L6 rat myoblast cells.

In the case of `N=C(N)c1ccc(-c2ccc(-c3ccc(C(=N)N)cn3)o2)cc1` [3a, azafuramidine], the half-inhibitory concentration (IC50) (in data set [1]; with Plasmodium falciparum K1) was 0.0065 µM in each case.
With `N=C(N)c1ccc(-c2ccc(-c3ccc(C(=N)N)cc3)cc2)cc1` [6a], the 50% inhibitory concentration (IC50) (commonly the point on the concentration scale where inhibition reaches its midpoint) in data set [2] was found to be 22.1 µM.
Turning to `N=C(N)c1ccc(-c2ccc(-c3ccc(C(=N)N)cc3)nn2)cc1` [15b], the IC50 with L6 rat myoblast cells was 31.3 µM.
